ChEMBL document CHEMBL1201862, “PubChem BioAssay data set” (2004)
The source made the active and inactive calls. Unless noted, the rule behind the calls is not given here.

Columns and labels:
Plasmodium falciparum [1] = assay: Primary qHTS for delayed death inhibitors of the malarial parasite plastid, 48 hour incubation. [Related pubchem assays (depositor defined):AID488752, AID488774, AID504848, AID504850]; type: functional; settings: read-out: Potency
Plasmodium falciparum [2] = assay: Primary qHTS for delayed death inhibitors of the malarial parasite plastid, 96 hour incubation. [Related pubchem assays (depositor defined):AID488745, AID488752, AID488774, AID504848, AID504850]; type: functional; settings: read-out: Potency
INS1 [3] = assay: beta-cell survival under cytokine stress – INS-1E, ATP luminescence, dry powder, dose response (AID 488844); type: functional, cell-based; settings: Rattus norvegicus
INS1 [4] = assay: INS-1E mitochondrial potential loss inhibitors – cell-based, JC-1 fluorescence, dry powder, set 2, dose response (AID 488867); type: functional; settings: Rattus norvegicus
INS1 [5] = assay: INS-1E mitochondrial potential rescue under cytokines – cell-based, JC-1 fluorescence ratio, dry powder, dose response (AID 488931); type: functional; settings: Rattus norvegicus
Hexokinase-1 = Hexokinase-1 (Homo sapiens, UniProt P19367); assay: SAR analysis of small molecule inhibitors of hexokinase domain containing I (HKDC1) in the hexokinase 1 selectivity assay. [Related pubchem assays (depositor defined):AID493160, AID493190]; type: functional
Sequence of Hexokinase-1 (P19367 whole entry, the tested form may be a part): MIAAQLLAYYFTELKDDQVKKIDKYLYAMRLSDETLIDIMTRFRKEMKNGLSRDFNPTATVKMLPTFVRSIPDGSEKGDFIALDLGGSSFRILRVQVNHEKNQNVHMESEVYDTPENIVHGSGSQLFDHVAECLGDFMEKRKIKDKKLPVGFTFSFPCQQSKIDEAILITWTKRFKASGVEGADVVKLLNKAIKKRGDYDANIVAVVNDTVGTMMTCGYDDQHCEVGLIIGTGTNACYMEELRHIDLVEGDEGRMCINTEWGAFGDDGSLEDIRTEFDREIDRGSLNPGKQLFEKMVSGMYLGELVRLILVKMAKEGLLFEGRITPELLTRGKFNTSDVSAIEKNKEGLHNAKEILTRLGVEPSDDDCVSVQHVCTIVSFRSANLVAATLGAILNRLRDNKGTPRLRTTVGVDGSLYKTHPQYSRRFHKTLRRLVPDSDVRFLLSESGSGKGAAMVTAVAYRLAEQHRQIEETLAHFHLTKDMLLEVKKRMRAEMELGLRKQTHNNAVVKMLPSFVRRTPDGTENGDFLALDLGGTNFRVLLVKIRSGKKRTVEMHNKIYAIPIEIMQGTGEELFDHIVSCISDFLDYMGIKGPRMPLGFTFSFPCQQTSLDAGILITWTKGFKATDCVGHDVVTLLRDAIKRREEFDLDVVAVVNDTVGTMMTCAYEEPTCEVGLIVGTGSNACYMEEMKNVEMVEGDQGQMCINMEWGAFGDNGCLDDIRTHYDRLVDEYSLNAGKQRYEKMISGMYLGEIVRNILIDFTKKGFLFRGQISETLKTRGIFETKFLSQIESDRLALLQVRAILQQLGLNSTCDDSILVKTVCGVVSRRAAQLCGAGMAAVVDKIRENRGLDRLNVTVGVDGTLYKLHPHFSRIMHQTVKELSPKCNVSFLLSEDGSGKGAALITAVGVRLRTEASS

Hexokinase HKDC1 = biological target: T1, Hexokinase HKDC1 (Homo sapiens, UniProt Q2TB90); assay: SAR analysis of small molecule inhibitors of hexokinase domain containing I (HKDC1). [Related pubchem assays (depositor defined):AID493160, AID493190]; type: functional
T1 sequence (Q2TB90 whole entry): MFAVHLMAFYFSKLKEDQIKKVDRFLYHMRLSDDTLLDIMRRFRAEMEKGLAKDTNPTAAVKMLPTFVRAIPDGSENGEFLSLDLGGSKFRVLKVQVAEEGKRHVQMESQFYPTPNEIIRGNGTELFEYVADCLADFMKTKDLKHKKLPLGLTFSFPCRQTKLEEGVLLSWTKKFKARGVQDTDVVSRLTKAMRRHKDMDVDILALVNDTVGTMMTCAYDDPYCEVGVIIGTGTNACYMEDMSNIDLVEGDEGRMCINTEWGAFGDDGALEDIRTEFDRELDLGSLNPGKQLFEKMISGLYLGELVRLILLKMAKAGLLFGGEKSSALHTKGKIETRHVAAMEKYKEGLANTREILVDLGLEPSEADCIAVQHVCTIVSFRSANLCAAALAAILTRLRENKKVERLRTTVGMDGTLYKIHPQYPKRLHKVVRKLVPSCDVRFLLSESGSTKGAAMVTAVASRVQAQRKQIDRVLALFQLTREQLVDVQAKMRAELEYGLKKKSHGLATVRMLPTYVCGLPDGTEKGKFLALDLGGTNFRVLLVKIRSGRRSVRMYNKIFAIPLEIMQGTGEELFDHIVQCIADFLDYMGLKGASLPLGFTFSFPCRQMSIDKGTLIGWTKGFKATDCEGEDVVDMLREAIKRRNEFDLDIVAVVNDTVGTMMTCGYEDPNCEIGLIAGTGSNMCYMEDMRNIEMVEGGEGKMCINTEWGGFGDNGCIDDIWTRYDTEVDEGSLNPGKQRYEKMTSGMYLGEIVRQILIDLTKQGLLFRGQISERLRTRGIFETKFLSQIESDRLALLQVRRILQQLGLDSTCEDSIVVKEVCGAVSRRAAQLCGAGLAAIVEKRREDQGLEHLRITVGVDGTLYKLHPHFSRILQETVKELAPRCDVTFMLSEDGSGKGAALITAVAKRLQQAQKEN

CN(C)C1(CNC(=O)c2ccc(Cl)c(S(N)(=O)=O)c2)CCCCC1
AC50 (Plasmodium falciparum [1]): 9.29 µM (inactive) | AC50 (Plasmodium falciparum [2]): 20.8 µM (inactive)

COc1ccc(S(=O)(=O)N(C)C[C@H]2Oc3c(NC(=O)Nc4cccc5ccccc45)cccc3C(=O)N([C@@H](C)CO)C[C@@H]2C)cc1
AC50 (INS1 [3]): 85 µM (active) | AC50 (INS1 [4]): > 260 µM (inactive) | AC50 (INS1 [5]): 104 µM (active)

COc1cc2c(cc1OC)-c1cc(NCc3ccccc3)nc(=O)n1CC2
IC50 (Hexokinase-1): > 80 µM (inactive) | IC50 (Hexokinase HKDC1): > 80 µM (inactive)
